# Results from ChEMBL document CHEMBL5465560, “Selectivity Literature for EUbOPEN Chemogenomic Library” (2024).
# Legend:
# [1] = tested on: Tyrosine-protein kinase ABL1 (Homo sapiens), P00519 [E255K]; assay: (§1) Selectivity interaction (KinomeScan (DiscoverX)) EUB0001079a ABL1; details: at 1 µM
# [2] = biological target: Tyrosine-protein kinase ABL1 (Homo sapiens, UniProt P00519); assay: as §1; details: at 1 µM
# [3] = tested on: Tyrosine-protein kinase ABL1 (Homo sapiens), P00519 [H396P]; assay: as §1; details: at 1 µM
# [4] = tested on: Tyrosine-protein kinase ABL1 (Homo sapiens), P00519 [F317I]; assay: as §1; details: at 1 µM
# [5] = tested on: Tyrosine-protein kinase ABL1 (Homo sapiens), P00519 [Y253F]; assay: as §1; details: at 1 µM
# [6] = tested on: Tyrosine-protein kinase ABL1 (Homo sapiens), P00519 [T315I]; assay: as §1; details: at 1 µM
# [7] = tested on: Tyrosine-protein kinase ABL1 (Homo sapiens), P00519 [M351T]; assay: as §1; details: at 1 µM
# [8] = tested on: Tyrosine-protein kinase ABL1 (Homo sapiens), P00519 [F317L]; assay: as §1; details: at 1 µM
# [9] = tested on: Tyrosine-protein kinase ABL1 (Homo sapiens), P00519 [Q252H]; assay: as §1; details: at 1 µM
# [10] = biological target: T1, Mitogen-activated protein kinase kinase kinase 13 (Homo sapiens) (UniProt O43283); assay: Selectivity interaction (KinomeScan (DiscoverX)) EUB0000666a MAP3K13; details: at 10 µM
# T1 sequence (whole entry): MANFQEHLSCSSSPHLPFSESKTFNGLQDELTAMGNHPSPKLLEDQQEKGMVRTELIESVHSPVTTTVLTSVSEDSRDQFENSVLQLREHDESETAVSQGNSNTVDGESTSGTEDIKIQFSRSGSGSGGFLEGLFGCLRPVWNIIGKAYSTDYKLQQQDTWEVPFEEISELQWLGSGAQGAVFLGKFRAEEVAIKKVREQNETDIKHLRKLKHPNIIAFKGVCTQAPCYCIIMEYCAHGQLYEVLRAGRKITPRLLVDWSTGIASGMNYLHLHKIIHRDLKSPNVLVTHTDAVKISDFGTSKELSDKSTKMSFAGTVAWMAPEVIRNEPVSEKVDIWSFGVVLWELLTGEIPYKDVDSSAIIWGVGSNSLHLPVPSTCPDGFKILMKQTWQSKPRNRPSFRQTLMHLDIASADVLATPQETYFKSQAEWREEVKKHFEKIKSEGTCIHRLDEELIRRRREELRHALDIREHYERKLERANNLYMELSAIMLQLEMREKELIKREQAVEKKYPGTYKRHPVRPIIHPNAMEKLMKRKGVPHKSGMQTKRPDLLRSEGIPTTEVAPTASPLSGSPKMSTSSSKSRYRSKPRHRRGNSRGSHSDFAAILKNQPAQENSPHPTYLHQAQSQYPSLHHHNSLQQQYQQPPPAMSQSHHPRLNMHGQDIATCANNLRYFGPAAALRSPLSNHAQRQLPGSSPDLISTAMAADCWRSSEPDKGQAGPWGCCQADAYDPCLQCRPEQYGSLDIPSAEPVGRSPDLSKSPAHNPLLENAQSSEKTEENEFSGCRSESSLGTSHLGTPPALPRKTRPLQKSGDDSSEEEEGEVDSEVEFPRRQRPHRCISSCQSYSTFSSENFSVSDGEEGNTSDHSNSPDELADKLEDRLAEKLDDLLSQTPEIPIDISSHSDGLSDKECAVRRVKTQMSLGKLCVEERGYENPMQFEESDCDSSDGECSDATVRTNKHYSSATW
# [11] = biological target: Serine/threonine-protein kinase Chk2 (Homo sapiens) (UniProt O96017); assay: Selectivity interaction (Kinase panel (Z-LYTE Assay)) EUB0001632a CHEK2; details: at 10 µM
# [12] = biological target: T2, Bromodomain and PHD finger-containing protein 3 (Homo sapiens) (UniProt Q9ULD4); assay: Selectivity interaction (PWWP, WD40, and Tudor domain panel (DSLS measurements, literature)) EUB0000270b BRPF3
# T2 sequence (whole entry): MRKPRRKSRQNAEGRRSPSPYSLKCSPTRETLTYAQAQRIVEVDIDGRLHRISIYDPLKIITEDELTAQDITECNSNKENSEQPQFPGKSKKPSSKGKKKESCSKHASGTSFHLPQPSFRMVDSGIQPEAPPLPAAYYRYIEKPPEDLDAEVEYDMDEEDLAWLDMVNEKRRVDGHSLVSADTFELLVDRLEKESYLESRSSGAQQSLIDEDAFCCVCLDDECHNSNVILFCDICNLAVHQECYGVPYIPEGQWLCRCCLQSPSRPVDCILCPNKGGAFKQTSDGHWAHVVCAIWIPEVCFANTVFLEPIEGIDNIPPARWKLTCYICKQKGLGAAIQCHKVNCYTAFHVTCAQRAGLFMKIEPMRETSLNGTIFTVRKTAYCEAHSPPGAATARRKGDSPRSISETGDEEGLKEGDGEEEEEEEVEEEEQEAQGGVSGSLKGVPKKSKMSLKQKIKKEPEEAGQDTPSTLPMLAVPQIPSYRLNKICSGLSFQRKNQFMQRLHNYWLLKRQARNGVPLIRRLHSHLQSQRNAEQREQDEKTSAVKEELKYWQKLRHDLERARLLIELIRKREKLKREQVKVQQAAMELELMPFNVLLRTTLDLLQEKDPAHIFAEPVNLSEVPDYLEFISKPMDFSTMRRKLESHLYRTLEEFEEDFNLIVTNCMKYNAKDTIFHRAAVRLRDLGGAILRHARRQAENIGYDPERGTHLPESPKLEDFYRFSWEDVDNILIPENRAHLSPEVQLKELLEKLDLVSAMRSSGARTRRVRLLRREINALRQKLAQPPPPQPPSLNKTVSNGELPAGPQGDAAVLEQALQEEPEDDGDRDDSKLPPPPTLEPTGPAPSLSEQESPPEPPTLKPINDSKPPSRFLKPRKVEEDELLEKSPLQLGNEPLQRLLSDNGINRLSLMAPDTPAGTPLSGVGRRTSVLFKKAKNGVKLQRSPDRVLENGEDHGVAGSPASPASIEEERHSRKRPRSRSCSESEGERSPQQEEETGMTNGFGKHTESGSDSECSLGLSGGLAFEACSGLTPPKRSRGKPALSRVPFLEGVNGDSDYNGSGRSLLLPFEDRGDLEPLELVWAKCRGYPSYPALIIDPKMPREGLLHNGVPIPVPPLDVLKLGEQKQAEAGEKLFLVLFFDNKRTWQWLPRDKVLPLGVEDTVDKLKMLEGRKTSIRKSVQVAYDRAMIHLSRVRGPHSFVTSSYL
# [13] = biological target: G protein-coupled receptor kinase 5 (Homo sapiens, UniProt P34947); assay: Selectivity interaction (SelectScreen profiling (Invitrogen)) EUB0000607a GRK5; details: at 2 µM
# [14] = biological target: Mitotic checkpoint serine/threonine-protein kinase BUB1 (Homo sapiens, UniProt O43683); assay: Selectivity interaction (KinomeScan (DiscoverX)) EUB0001049a BUB1; details: at 1 µM
# [15] = biological target: Mitogen-activated protein kinase kinase kinase kinase 5 (Homo sapiens) (UniProt Q9Y4K4); assay: Selectivity interaction (KinomeScan (DiscoverX)) EUB0000045b MAP4K5
# [16] = biological target: LIM domain kinase 1 (Homo sapiens) (UniProt P53667); assay: Selectivity interaction (Ambit KINOMEscan and KiNATiv profiling in Jurkat cells) EUB0000090b LIMK1; assay type: cell-based; details: at 1 µM
# Sequence of LIM domain kinase 1 (Homo sapiens) (P53667 whole entry, looked up, the tested form may be a part): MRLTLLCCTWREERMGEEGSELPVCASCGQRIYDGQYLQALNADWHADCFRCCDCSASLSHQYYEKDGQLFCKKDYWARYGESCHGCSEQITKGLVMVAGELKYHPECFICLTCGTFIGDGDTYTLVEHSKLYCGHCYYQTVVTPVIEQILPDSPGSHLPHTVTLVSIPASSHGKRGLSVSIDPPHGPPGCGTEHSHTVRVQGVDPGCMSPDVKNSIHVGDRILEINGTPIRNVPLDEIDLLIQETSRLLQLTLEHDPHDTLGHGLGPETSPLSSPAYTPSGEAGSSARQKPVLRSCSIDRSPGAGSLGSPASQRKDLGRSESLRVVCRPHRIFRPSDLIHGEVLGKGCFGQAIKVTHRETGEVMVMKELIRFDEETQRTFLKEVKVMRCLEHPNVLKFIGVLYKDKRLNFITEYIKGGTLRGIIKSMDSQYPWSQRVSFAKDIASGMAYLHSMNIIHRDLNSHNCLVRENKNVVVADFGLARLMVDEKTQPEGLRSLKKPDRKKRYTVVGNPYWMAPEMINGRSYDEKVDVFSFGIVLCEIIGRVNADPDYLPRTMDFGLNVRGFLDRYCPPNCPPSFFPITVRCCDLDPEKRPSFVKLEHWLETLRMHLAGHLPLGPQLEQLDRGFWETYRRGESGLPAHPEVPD
# Sequence of Mitogen-activated protein kinase kinase kinase kinase 5 (Homo sapiens) (Q9Y4K4 whole entry, looked up, the tested form may be a part): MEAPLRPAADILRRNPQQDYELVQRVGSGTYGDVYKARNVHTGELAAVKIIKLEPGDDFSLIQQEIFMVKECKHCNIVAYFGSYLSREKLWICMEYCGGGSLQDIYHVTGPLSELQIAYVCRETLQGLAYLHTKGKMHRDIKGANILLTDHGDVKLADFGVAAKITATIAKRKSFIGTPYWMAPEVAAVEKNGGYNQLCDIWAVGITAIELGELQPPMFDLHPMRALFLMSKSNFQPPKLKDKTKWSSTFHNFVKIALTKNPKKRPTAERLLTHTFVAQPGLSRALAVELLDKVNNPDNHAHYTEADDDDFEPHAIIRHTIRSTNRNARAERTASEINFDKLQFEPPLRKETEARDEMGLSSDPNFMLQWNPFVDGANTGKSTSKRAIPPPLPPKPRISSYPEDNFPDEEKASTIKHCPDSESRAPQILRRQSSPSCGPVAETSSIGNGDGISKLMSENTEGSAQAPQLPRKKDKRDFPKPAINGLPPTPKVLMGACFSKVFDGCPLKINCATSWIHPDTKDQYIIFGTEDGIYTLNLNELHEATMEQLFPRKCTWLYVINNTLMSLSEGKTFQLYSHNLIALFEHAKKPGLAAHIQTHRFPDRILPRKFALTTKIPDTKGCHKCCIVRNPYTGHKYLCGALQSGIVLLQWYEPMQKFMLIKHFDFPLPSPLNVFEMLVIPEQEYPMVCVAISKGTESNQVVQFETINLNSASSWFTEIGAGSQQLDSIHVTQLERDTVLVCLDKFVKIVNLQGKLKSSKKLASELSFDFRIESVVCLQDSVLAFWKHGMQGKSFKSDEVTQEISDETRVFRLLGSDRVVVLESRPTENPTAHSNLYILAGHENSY
# Sequence of Mitotic checkpoint serine/threonine-protein kinase BUB1 (O43683 whole entry, looked up): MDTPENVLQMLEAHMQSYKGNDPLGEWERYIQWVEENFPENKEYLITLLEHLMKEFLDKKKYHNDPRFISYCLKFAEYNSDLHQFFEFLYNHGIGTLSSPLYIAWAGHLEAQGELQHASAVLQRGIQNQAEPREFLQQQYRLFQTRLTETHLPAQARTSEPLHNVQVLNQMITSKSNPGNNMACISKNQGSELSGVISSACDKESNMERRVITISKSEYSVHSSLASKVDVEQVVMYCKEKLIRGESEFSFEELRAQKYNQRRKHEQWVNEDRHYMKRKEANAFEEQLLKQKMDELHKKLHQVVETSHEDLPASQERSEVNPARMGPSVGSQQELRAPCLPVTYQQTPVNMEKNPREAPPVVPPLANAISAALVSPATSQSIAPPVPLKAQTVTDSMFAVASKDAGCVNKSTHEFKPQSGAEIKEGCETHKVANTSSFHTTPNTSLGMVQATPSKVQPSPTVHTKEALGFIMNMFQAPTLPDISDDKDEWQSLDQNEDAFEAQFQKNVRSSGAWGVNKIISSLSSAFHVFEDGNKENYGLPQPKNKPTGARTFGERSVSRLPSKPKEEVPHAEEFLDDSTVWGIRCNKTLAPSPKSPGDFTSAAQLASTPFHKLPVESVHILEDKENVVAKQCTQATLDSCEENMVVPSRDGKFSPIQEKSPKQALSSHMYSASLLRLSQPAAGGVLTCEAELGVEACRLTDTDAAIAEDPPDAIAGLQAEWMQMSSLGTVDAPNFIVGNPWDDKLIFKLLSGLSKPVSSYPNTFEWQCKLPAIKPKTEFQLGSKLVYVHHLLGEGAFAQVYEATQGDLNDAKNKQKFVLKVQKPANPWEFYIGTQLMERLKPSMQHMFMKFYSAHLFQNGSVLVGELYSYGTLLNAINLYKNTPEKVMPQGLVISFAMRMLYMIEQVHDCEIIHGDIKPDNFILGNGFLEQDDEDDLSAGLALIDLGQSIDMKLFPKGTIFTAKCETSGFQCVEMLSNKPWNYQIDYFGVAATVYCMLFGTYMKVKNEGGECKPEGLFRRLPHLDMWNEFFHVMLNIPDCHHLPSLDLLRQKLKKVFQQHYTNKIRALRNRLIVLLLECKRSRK
# Sequence of Serine/threonine-protein kinase Chk2 (Homo sapiens) (O96017 whole entry, the tested form may be a part): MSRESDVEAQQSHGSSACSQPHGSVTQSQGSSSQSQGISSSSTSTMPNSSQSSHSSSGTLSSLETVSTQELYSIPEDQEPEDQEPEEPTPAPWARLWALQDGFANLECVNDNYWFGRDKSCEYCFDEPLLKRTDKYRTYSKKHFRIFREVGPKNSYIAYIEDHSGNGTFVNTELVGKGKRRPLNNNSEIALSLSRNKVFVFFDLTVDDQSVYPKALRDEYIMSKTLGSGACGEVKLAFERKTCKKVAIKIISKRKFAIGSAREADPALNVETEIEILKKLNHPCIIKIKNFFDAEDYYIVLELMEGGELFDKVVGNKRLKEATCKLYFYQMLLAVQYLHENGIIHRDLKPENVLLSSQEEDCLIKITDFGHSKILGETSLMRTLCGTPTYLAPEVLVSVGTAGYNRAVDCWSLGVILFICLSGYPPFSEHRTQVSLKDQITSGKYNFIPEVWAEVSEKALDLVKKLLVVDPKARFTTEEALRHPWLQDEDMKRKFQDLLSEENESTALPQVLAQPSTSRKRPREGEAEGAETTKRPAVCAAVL
# Sequence of G protein-coupled receptor kinase 5 (P34947 whole entry, looked up): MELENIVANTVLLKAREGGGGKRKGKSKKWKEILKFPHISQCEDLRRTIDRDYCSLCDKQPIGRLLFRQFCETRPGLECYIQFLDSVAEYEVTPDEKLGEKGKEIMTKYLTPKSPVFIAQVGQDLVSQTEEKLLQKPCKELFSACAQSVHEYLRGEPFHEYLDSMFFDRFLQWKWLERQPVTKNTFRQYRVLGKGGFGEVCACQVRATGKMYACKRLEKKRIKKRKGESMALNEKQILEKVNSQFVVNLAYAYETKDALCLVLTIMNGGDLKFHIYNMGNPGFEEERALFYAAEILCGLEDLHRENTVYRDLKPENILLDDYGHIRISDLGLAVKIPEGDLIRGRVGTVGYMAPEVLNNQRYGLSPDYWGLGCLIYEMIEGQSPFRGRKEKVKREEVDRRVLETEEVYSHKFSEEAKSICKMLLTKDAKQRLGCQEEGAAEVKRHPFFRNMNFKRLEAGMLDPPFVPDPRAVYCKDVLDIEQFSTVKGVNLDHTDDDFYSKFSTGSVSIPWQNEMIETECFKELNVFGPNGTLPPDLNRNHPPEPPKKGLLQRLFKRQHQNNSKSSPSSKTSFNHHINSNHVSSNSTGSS
compound,measurement,setting,value
Nc1cnc(N2CCc3cc(S(=O)(=O)Nc4c(F)cc(Cl)cc4F)cc(N4CCCC4=O)c32)nc1 [TP-020n],% of control,[1],85%
same,% of control,[2],100%
same,% of control,[3],94%
same,% of control,[4],100%
same,% of control,[5],94%
same,% of control,[6],100%
same,% of control,[7],100%
same,% of control,[8],99%
same,% of control,[9],100%
O=C(NOC[C@H](O)CO)c1ccc(F)c(F)c1Nc1ccc(I)cc1F,% of control,[10],86%
Cn1cc(-n2cnc3c(NCc4nc5cc(Cl)c(Cl)cc5[nH]4)nc(N4CCOCC4)nc32)cn1,% of control,[11],12.8%
Cc1cc(CN)cc(C)c1-c1ncn(C)c1-c1cncn1C,dTagg,[12],0.3 K
CNC(=O)Nc1ccc(-c2nc(N3CC4CCC(C3)O4)c3cnn(C4CCC5(CC4)OCCO5)c3n2)cc1,% of inhibition,[13],-4%
COc1cc(Nc2nc(C)cc(-c3cnn4nc(OC)ccc34)n2)cc(C(F)(F)F)c1,% of control,[14],67%
C=CC(=O)Nc1cc(-n2c(=O)ccc3cnc4ccc(-c5ccc(NS(C)(=O)=O)cc5)cc4c32)ccc1C,% of control,[15]; at 1 µM,100%
same,% of control,[15]; at 10 µM,74%
CN(C)C/C=C/C(=O)Nc1ccc(C(=O)N2CCCC(Nc3ncc(Cl)c(-c4c[nH]c5ccccc45)n3)C2)cc1 (configuration not stated),% of control,[16],100%
